“Also recorded” adds a separate entry of the source. Ends that are not written are not given here.
Key:
NMDA receptor = type: cell-based, rat
[1] = biological target: NMDA receptor GluN2B subunit (Mus musculus, UniProt Q01097); settings: cited from earlier work
[2] = biological target: GluN2B recombinant subunit (Rattus norvegicus, UniProt Q00960); settings: cited from earlier work
GluN2B recombinant subunit, sequence (Q00960 27-1482, other chains not shown): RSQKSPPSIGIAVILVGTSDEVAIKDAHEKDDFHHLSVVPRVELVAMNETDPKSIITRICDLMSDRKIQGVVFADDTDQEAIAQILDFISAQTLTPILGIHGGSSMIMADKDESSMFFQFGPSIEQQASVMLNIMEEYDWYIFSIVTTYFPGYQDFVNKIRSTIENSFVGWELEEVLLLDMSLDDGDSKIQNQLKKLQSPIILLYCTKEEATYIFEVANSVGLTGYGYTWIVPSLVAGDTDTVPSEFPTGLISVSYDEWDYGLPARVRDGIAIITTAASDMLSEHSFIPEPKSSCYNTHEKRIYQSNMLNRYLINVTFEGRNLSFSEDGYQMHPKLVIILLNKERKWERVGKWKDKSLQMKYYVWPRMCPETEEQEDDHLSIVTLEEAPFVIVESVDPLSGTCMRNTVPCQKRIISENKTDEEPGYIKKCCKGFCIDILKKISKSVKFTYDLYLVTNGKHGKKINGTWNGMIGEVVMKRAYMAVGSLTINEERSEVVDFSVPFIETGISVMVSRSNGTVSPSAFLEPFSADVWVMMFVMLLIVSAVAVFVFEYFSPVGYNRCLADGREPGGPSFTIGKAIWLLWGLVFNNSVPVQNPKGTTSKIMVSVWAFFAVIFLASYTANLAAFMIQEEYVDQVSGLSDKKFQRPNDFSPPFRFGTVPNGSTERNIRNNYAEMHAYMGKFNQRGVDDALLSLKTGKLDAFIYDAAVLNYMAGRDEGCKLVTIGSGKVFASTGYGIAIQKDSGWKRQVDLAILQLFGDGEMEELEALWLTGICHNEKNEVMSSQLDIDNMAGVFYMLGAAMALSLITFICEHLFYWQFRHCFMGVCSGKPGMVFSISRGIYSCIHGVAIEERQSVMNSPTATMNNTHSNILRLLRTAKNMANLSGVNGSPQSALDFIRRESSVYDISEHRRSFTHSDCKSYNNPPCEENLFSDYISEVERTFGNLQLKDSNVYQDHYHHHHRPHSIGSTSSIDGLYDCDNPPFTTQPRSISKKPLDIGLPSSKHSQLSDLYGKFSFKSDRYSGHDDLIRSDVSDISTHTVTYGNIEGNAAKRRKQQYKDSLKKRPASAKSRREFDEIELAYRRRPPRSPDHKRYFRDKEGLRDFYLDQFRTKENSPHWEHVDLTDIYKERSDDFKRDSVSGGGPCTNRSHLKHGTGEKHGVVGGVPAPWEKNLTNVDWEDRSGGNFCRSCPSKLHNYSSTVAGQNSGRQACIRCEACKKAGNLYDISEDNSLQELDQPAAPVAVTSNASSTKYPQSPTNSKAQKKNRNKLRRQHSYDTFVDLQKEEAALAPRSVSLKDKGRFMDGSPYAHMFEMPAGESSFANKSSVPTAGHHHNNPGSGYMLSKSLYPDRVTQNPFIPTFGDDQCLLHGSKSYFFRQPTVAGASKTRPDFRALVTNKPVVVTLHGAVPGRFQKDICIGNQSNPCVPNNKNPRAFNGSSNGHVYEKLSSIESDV

NMDA receptor GluN2B subunit, sequence (Q01097 whole entry, looked up): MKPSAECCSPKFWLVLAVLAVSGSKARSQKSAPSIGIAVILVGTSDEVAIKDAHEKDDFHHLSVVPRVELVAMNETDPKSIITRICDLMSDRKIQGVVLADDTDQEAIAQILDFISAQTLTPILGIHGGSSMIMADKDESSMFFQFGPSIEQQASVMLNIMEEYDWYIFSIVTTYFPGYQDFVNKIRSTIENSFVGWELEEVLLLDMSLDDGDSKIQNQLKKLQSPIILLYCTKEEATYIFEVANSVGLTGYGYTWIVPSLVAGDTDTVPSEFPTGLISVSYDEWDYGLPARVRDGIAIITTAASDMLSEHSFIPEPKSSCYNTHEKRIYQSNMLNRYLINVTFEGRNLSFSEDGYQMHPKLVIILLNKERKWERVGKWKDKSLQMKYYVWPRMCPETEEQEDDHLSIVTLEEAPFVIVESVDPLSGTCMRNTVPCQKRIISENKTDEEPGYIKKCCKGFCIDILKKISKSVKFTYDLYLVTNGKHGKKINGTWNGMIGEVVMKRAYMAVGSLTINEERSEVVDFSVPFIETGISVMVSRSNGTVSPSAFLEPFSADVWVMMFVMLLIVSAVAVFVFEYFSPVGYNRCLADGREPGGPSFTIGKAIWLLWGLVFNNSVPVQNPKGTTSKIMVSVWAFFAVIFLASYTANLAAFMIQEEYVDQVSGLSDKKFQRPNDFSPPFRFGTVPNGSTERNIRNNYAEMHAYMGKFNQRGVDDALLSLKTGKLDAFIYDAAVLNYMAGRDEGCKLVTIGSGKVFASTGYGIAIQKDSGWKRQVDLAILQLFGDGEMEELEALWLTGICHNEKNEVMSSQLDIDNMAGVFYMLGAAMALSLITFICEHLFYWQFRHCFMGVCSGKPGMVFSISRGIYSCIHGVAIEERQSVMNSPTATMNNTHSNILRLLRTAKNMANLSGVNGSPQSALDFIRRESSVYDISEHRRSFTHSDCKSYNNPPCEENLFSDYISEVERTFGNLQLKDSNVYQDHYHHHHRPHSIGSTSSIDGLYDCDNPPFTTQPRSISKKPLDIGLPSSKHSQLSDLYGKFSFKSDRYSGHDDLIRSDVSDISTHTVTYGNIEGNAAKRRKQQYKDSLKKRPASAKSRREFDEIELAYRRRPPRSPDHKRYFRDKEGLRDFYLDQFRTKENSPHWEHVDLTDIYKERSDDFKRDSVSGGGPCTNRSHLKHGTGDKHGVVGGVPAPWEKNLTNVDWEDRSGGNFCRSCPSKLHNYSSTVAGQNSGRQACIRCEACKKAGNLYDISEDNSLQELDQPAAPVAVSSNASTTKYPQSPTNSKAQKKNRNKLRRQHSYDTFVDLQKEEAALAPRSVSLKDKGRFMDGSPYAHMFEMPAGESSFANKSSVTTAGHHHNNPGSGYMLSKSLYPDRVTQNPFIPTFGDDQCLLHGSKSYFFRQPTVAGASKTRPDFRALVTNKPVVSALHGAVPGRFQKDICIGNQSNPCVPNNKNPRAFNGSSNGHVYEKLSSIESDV

With `C[C@]12N[C@H](Cc3ccccc31)c1ccccc12` [(+)-MK-801, dizocilpine] the “blocking of input current due to stimulation by peptide SEQ ID NO: 4” value (NMDA receptor) was “more than 90%”, the “blocking of the response (in words)” value (NMDA receptor) was “almost total blocking of the response” and the “reduction in the response obtained by stimulation with NMDA/glycine” value (NMDA receptor) was “more than 50%”.
In the case of GEγγLQγNQγLIRγKSN-NH2 [conantokin-G], the IC50 [1] is listed as 500 nM and the IC50 [2] is listed as 100 nM.
In the case of `C[C@@H](CN1CCC(Cc2ccccc2)CC1)[C@@H](O)c1ccc(O)cc1` [Ro 25-9681], the “blocking of the response evoked by NMDA/glycine” value (NMDA receptor) is listed as “less than 50%” and the IC50 [2] is listed as 9 nM.
For KLGMRSELQIDNDQDAD [SEQ ID NO: 4], the “agonist effect: input current evoked by the peptide (in words)” value (NMDA receptor) was “evoked input current via the NMDA receptor; also recorded: an input current was found”.

From patent US11661440B2 (priority 2015, dated 2023)
